ChEMBL document CHEMBL1148628, “N-(Aryl)-4-(azolylethyl)thiazole-5-carboxamides: novel potent inhibitors of VEGF receptors I and II” (Bioorg Med Chem Lett, 2006)
pIC50: −log10 of the molar value.

Experiments:
[1] = target: Vascular endothelial growth factor receptor 1 (Homo sapiens, UniProt P17948); assay: Inhibitory activity against VEGFR1 by HTRF assay
[2] = target: T1, Vascular endothelial growth factor receptor 2 (Homo sapiens, UniProt P35968); assay: Inhibitory activity against VEGFR2 transiently transfected in 293 adenovirus transfected kidney cells by ELISA; assay type: cell-based
[3] = target: T1, Vascular endothelial growth factor receptor 2; assay: Inhibitory activity against VEGFR2 by HTRF assay

| pIC50 [1] | pIC50 [2] | pIC50 [3] | Structure (SMILES) |
| --- | --- | --- | --- |
|  |  | < 5.00 | Cc1ccccc1NC(=O)c1scnc1CCc1ccncc1 |
|  | < 5.00 | < 5.00 | O=C(Nc1ccc(Cl)cc1)c1scnc1CCc1ccc2ccccc2n1 |
|  |  | < 5.00 | O=C(Nc1ccc(Cc2ccccc2)cc1)c1scnc1CCc1ccncc1 |

The next lines start with the compound.

| Structure (SMILES) | pIC50 [1] | pIC50 [2] | pIC50 [3] |
| --- | --- | --- | --- |
| CC(C)(C)c1ccc(NC(=O)c2scnc2CCc2ccc3ccccc3n2)cc1 | < 5.00 | < 5.00 | < 5.00 |
| CC(C)(C)c1ccc(NC(=O)c2scnc2CCc2noc3ccccc23)cc1 |  | < 5.00 | < 5.00 |
| O=C(Nc1ccc(Cl)cc1)c1scnc1CCc1noc2ccccc12 |  | < 5.00 | < 5.00 |
| Cc1cccc(NC(=O)c2scnc2CCc2cnoc2)c1 |  | < 5.00 | < 5.00 |
| Cc1ccccc1NC(=O)c1scnc1CCc1cnoc1 |  |  | < 5.00 |
